Source: patent publication US8513271B2, “Pyrimidine compounds as delta opioid receptor modulators” (Janssen Pharmaceutica, NV, priority 2009, dated 2013)
Read-outs that look alike come from different tables or passages of the source.

Molecular target: T1, delta opioid receptor (Mus musculus, UniProt P32300)
T1 construct: NG108-15 cell membranes were purchased from Applied Cell Sciences (Rockville, Md.); host or cells: NG108-15 cell membranes
Assay: [35S]GTPγS binding assay in NG108-15 cell membranes (delta opioid functional assay), 200 nM screen
Format: biochemical
Settings: NG108-15 cell membranes; for GTPγS δ-RelEfficacy @200 nM: 200 nM test compound, relative to calculated max of SNC80 dose response curve; for GTPγS δ-RelEfficacy @200 nM / EC50: averages if tested more than once; for GTPγS δ-opioid receptor Rel Efficacy: relative efficacy from dose response

[1] = read-out: GTPγS δ-opioid receptor EC50
[2] = GTPγS δ-opioid receptor EC50 (μM)

T1 sequence (P32300 whole entry): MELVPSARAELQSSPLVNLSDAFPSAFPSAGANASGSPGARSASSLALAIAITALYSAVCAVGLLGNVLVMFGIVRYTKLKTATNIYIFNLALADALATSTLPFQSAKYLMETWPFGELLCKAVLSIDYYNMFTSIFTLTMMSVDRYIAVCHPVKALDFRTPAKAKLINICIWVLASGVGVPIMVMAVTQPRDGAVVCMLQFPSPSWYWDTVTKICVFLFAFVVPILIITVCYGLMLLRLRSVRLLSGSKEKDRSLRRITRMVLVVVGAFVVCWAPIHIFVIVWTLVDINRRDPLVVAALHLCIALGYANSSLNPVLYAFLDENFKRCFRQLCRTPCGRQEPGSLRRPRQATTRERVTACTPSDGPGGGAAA

COc1ccc(Oc2nc(-c3cccnc3)ncc2NC[C@@H]2CCCCN2)cc1 [Cpd 225]
GTPγS δ-RelEfficacy @200 nM: 0.260 | EC50 [1]: 0.483 µM | GTPγS δ-opioid receptor Rel Efficacy: 0.718

COc1ccc(Oc2nc(-c3cccnc3)ncc2NC2CCCC(N)C2)cc1 (single isomer, unassigned) [Cpd 323]
EC50 [2]: 0.06 µM | GTPγS δ-opioid receptor Rel Efficacy: 0.988

COc1ccc(Oc2nc(-c3cccnc3)ncc2NC2CCCC(N)C2)cc1 (single isomer, unassigned) [Cpd 307]
GTPγS δ-RelEfficacy @200 nM: 0.880 | EC50 [2]: 0.011 µM | GTPγS δ-opioid receptor Rel Efficacy: 1.191

COc1ccc(Oc2nc(-c3cc(C)cnc3C)ncc2NC[C@@H]2CCCN2)cc1 [Cpd 263]
EC50 [2]: 0.027 µM | GTPγS δ-opioid receptor Rel Efficacy: 0.869

O=C(c1ccc(Oc2nc(-c3cncc(F)c3)ncc2NC[C@@H]2CCCN2)cc1)N1CCCC1 [Cpd 176]
GTPγS δ-RelEfficacy @200 nM: 0.112

COc1ccc(Oc2nc(-c3cccnc3)ncc2N[C@@H]2CCC[C@H](N)C2)cc1 [Cpd 322]
EC50 [2]: 0.196 µM | GTPγS δ-opioid receptor Rel Efficacy: 0.960

CNCCNc1cnc(-c2cccnc2)nc1Oc1ccc(OC)cc1 [Cpd 297]
EC50 [1]: 0.424 µM | GTPγS δ-opioid receptor Rel Efficacy: 0.820

CCc1ccc(Oc2nc(-c3cncc(Cl)c3)ncc2NC[C@@H]2CCCN2)cc1 [Cpd 180]
GTPγS δ-RelEfficacy @200 nM: 0.250

COc1ccc(Oc2nc(-c3cncc(SC)c3)ncc2N[C@@H]2CCC[C@H](N)C2)cc1 [Cpd 317]
EC50 [2]: > 1 µM

Cc1cc(Oc2nc(-c3cncc(C#N)c3)ncc2NC[C@@H]2CCCN2)ccc1F [Cpd 218]
GTPγS δ-RelEfficacy @200 nM: 0.642 | EC50 [1]: 0.353 µM | GTPγS δ-opioid receptor Rel Efficacy: 0.960

COc1ccc(Oc2nc(-c3cncc(C#N)c3)ncc2NC2CC(N)C2)cc1 (stereo not drawn) [Cpd 303]
GTPγS δ-RelEfficacy @200 nM: 0.622 | EC50 [1]: 0.114 µM | GTPγS δ-opioid receptor Rel Efficacy: 1.047

COc1cncc(-c2ncc(NC[C@@H]3CCCN3)c(Oc3cccc(O)c3)n2)c1 [Cpd 249]
GTPγS δ-RelEfficacy @200 nM: 1.000 | EC50 [2]: 0.011 µM | GTPγS δ-opioid receptor Rel Efficacy: 0.940

COc1ccc(Oc2nc(-c3cncc(OC)c3)ncc2N[C@H]2CCC[C@@H](N)C2)cc1 [Cpd 312, N-[4-(4-Methoxy-phenoxy)-2-(5-methoxy-pyridin-3-yl)-pyrimidin-5-yl]-cyclohexane-(1R,3S)-1,3-diamine]
EC50 [2]: 0.00435 µM | GTPγS δ-opioid receptor Rel Efficacy: 1.007

Cc1ccc(Oc2nc(-c3cccnc3)ncc2NC[C@@H]2CCCN2)c(F)c1F [Cpd 192]
GTPγS δ-RelEfficacy @200 nM: 0.135

COc1ccc(Oc2nc(-c3cncc(C)c3)ncc2N2CCCNCC2)cc1 [Cpd 358]
EC50 [1]: 0.0242 µM | GTPγS δ-opioid receptor Rel Efficacy: 0.978

COc1ccc(Oc2nc(-c3cncc(C#N)c3)ncc2N[C@H]2CCCNC2)cc1 [Cpd 199]
GTPγS δ-RelEfficacy @200 nM: 0.615 | GTPγS δ-opioid receptor Rel Efficacy: 1.140

COc1ccc(Oc2nc(-c3cncc(C#N)c3)ncc2NC[C@@H]2CCCN2)cc1C [Cpd 204]
GTPγS δ-RelEfficacy @200 nM: 0.911 | EC50 [2]: 0.026 µM | GTPγS δ-opioid receptor Rel Efficacy: 0.982

COc1ccc(Oc2nc(-c3cncc(C#N)c3)ncc2N[C@H]2CCCNC2)cc1 [Cpd 207]
GTPγS δ-RelEfficacy @200 nM: 0.963 | GTPγS δ-opioid receptor Rel Efficacy: 1.047

Cc1ccc(Oc2nc(-c3cncc(C#N)c3)ncc2NC[C@@H]2CCCN2)c(F)c1F [Cpd 189]
GTPγS δ-RelEfficacy @200 nM: 0.375

COc1ccc(Oc2nc(-c3cncc(C)c3)ncc2N[C@H]2CCCNC2)cc1 [Cpd 259]
EC50 [2]: 0.0749 µM | GTPγS δ-opioid receptor Rel Efficacy: 1.030

O=C(c1cccc(Oc2nc(-c3cncc(F)c3)ncc2NC[C@@H]2CCCN2)c1)N1CCCCC1 [Cpd 172]
GTPγS δ-RelEfficacy @200 nM: 0.246

COc1ccc(Oc2nc(-c3cncc(C)c3)ncc2NC2CCCC(N)C2)cc1 (stereo not drawn) [Cpd 315]
EC50 [2]: 0.042 µM | GTPγS δ-opioid receptor Rel Efficacy: 1.019

COc1ccc(Oc2nc(-c3cncc(C)c3)ncc2N2CC[C@@H](N)C2)cc1 [Cpd 352]
EC50 [2]: 0.079 µM | GTPγS δ-opioid receptor Rel Efficacy: 0.967

COc1cncc(-c2ncc(NC[C@@H]3CCCN3)c(Oc3ccccc3Cl)n2)c1 [Cpd 232]
GTPγS δ-RelEfficacy @200 nM: 0.679 | EC50 [1]: 0.143 µM | GTPγS δ-opioid receptor Rel Efficacy: 1.021

CCc1ccc(Oc2nc(-c3cncc(F)c3)ncc2NC[C@@H]2CCCN2)cc1 [Cpd 182]
GTPγS δ-RelEfficacy @200 nM: 0.470 | EC50 [1]: 0.377 µM | GTPγS δ-opioid receptor Rel Efficacy: 1.065

COc1ccc(Oc2nc(-c3cncc(C#N)c3)ncc2NCc2cncn2C)cc1 [Cpd 286]
GTPγS δ-RelEfficacy @200 nM: 0.1

COc1ccc(Oc2nc(-c3cncc(Cl)c3)ncc2NC[C@@H]2CCCN2)cc1C [Cpd 210]
GTPγS δ-RelEfficacy @200 nM: 0.730 | EC50 [2]: 0.044 µM | GTPγS δ-opioid receptor Rel Efficacy: 1.150

O=C(Nc1cccc(Oc2nc(-c3cccnc3)ncc2NC[C@@H]2CCCN2)c1)OCc1ccccc1 [Cpd 188]
GTPγS δ-RelEfficacy @200 nM: 0.779 | EC50 [1]: 0.219 µM | GTPγS δ-opioid receptor Rel Efficacy: 1.950

COc1ccc(Oc2nc(-c3cncc(OC)c3)ncc2NC2CCCC(N)C2)cc1 (mixture of isomers) [Cpd 309]
EC50 [1]: 0.035 µM | GTPγS δ-opioid receptor Rel Efficacy: 1.162

N#Cc1cncc(-c2ncc(NC[C@@H]3CCCN3)c(Oc3ccccc3Cl)n2)c1 [Cpd 230]
GTPγS δ-RelEfficacy @200 nM: 0.847

N#Cc1cncc(-c2ncc(NC[C@@H]3CCCN3)c(Oc3ccc(CF)cc3)n2)c1 [Cpd 206]
GTPγS δ-RelEfficacy @200 nM: 0.292

COc1ccc(Oc2nc(-c3cncnc3)ncc2N(C[C@@H]2CCCN2)C(C)=O)cc1 [Cpd 181, N-[4-(4-Methoxy-phenoxy)-[2,5′]bipyrimidinyl-5-yl]-N-pyrrolidin-2-(S)-ylmethyl-acetamide]
GTPγS δ-RelEfficacy @200 nM: 0.139

COc1cncc(-c2ncc(NC[C@@H]3CCCN3)c(Oc3cccc(OC(C)=O)c3)n2)c1 [Cpd 250, Acetic acid 3-{2-(5-methoxy-pyridin-3-yl)-5-[(pyrrolidin-2-(S)-ylmethyl)-amino]-pyrimidin-4-yloxy}-phenyl ester]
GTPγS δ-RelEfficacy @200 nM: 0.912 | EC50 [2]: 0.026 µM | GTPγS δ-opioid receptor Rel Efficacy: 1.022

COc1ccc(Oc2nc(-c3cncc(SC)c3)ncc2NCc2cnc[nH]2)cc1 [Cpd 289]
GTPγS δ-RelEfficacy @200 nM: 0.402

COc1ccc(Oc2nc(-c3cncc(C#N)c3)ncc2N2CCC[C@@H](N)C2)cc1 [Cpd 330]
GTPγS δ-RelEfficacy @200 nM: 0.547 | EC50 [1]: 0.051 µM | GTPγS δ-opioid receptor Rel Efficacy: 0.894

CC[C@@H]1CN(c2cnc(-c3cncc(OC)c3)nc2Oc2ccc(OC)cc2)CCN1 [Cpd 361]
EC50 [2]: 0.07 µM | GTPγS δ-opioid receptor Rel Efficacy: 0.962

COc1ccc(Oc2nc(-c3cncc(C#N)c3)ncc2N2CC[C@H](N)C2)cc1 [Cpd 328]
GTPγS δ-RelEfficacy @200 nM: 0.377

CSc1cncc(-c2ncc(NC[C@@H]3CCCN3)c(Oc3ccccc3Cl)n2)c1 [Cpd 233]
GTPγS δ-RelEfficacy @200 nM: 0.549

Cc1cccc(Oc2nc(-c3cccnc3)ncc2NC[C@@H]2CCCN2)c1 [Cpd 203]
GTPγS δ-RelEfficacy @200 nM: 0.096

COc1ccc(Oc2nc(-c3cncc(C#N)c3)ncc2N2CCC[C@@H]2CN)cc1 [Cpd 334]
GTPγS δ-RelEfficacy @200 nM: 0.423

COc1ccc(Oc2nc(-c3cncc(C#N)c3)ncc2N2CCC[C@H](N)C2)cc1 [Cpd 329]
GTPγS δ-RelEfficacy @200 nM: 0.475 | EC50 [1]: 0.138 µM | GTPγS δ-opioid receptor Rel Efficacy: 1.006

CS(=O)(=O)Nc1ccc(Oc2nc(-c3cccnc3)ncc2NC[C@@H]2CCCN2)cc1 [Cpd 214]
GTPγS δ-RelEfficacy @200 nM: 0.115

Cc1ccc(Oc2nc(-c3cncc(Cl)c3)ncc2NC[C@@H]2CCCN2)c(F)c1F [Cpd 190]
GTPγS δ-RelEfficacy @200 nM: 0.222

COc1ccc(Oc2nc(-c3cncc(SC)c3)ncc2N[C@H]2CCC[C@@H](N)C2)cc1 [Cpd 316]
EC50 [2]: 0.00338 µM | GTPγS δ-opioid receptor Rel Efficacy: 0.977

COCCOc1ccc(Oc2nc(-c3cccnc3)ncc2NC[C@@H]2CCCN2)cc1 [Cpd 244]
GTPγS δ-RelEfficacy @200 nM: 0.354

COc1ccc(Oc2nc(-c3cncc(C)c3)ncc2NCCN)cc1 [Cpd 296]
EC50 [1]: 0.429 µM | GTPγS δ-opioid receptor Rel Efficacy: 0.938

CCN(CC)C(=O)c1ccc(Oc2nc(-c3cccnc3)ncc2NC[C@@H]2CCCN2)cc1 [Cpd 175]
GTPγS δ-RelEfficacy @200 nM: 0.005

COc1ccc(Oc2nc(-c3cncc(CO)c3)ncc2NC[C@@H]2CCCN2)cc1 [Cpd 269, (5-{4-(4-Methoxy-phenoxy)-5-[(pyrrolidin-2-(S)-ylmethyl)-amino]-pyrimidin-2-yl}-pyridin-3-yl)-methanol]
EC50 [2]: 0.053 µM | GTPγS δ-opioid receptor Rel Efficacy: 0.984

COCCOc1ccc(Oc2nc(-c3cncc(C)c3)ncc2NC[C@@H]2CCCN2)cc1 [Cpd 242]
GTPγS δ-RelEfficacy @200 nM: 0.413

COc1ccc(Oc2nc(-c3cnc(F)c(C)c3)ncc2NC[C@@H]2CCCN2)cc1 [Cpd 262]
EC50 [1]: 0.037 µM | GTPγS δ-opioid receptor Rel Efficacy: 0.957
